According to patent publication US11254663B2 (BRISTOL-MYERS SQUIBB COMPANY, priority 2019, dated 2022):

What follows are molecules tested against FXR (Homo sapiens (Human), UniProt Q96RI1) (assay: transient human FXR/Gal4-luciferase reporter assay). Settings: not given.
Type: cell-based
Summary of the method: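 HEK293 cells stably carrying a 5×Gal4 response element–firefly luciferase reporter were transiently transfected overnight with a Gal4 DBD–human FXR LBD fusion plasmid. Compound was added in DMSO and cells were incubated overnight at 37 °C, 5% CO2. Activity was read as Steady-Glo luminescence.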

Sequence of FXR (Q96RI1 262-486): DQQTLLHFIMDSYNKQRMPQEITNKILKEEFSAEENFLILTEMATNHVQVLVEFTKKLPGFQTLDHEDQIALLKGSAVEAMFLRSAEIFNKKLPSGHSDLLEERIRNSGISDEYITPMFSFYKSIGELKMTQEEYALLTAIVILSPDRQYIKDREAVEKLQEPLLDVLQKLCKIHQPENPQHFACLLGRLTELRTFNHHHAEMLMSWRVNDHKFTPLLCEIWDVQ

| SMILES | EC50 [nM] |
| --- | --- |
| Cc1nc2ccc(-c3cccc(N(CC45CCC(c6nnc(C7CC7)o6)(CC4)CC5)C(=O)C4CCC(F)(F)C4)c3)cc2s1 (stereo not drawn) [Example 563, N-((4-(5-cyclopropyl-1,3,4-oxadiazol-2-yl)bicyclo[2.2.2]octan-1-yl)methyl)-3,3-difluoro-N-(3-(2-methylbenzo[d]thiazol-6-yl)phenyl)cyclopentane-1-carboxamide] | 154 |
| O=C(N(CC12CCC(c3ccc(C(F)(F)F)cn3)(CC1)CC2)c1cccc(-c2cnc(C(F)(F)F)nc2)c1)C12CC(F)(C1)C2 [Example 491, 3-fluoro-N-((4-(5-(trifluoromethyl)pyridin-2-yl)bicyclo[2.2.2]octan-1-yl)methyl)-N-(3-(2-(trifluoromethyl)pyrimidin-5-yl)phenyl)bicyclo[1.1.1]pentane-1-carboxamide] | 1630 |
| CCc1cnc(-c2cccc(N(CC34CCC(c5ccc(C(F)(F)F)cn5)(CC3)CC4)C(=O)C34CC(F)(C3)C4)c2)nc1 [Example 496, N-(3-(5-ethylpyrimidin-2-yl)phenyl)-3-fluoro-N-((4-(5-(trifluoromethyl)pyridin-2-yl)bicyclo[2.2.2]octan-1-yl)methyl)bicyclo[1.1.1]pentane-1-carboxamide] | 539 |
| O=C(N(CC12CCC(c3noc(C(F)F)n3)(CC1)CC2)c1cccc(-c2ccc(OC(F)F)cc2)c1)C12CC(F)(C1)C2 [Example 465, N-(4′-(difluoromethoxy)-[1,1′-biphenyl]-3-yl)-N-((4-(5-(difluoromethyl)-1,2,4-oxadiazol-3-yl)bicyclo[2.2.2]octan-1-yl)methyl)-3-fluorobicyclo[1.1.1]pentane-1-carboxamide] | 180 |
| CC(C)(C)c1nc(C23CCC(CN(C(=O)C45CC(F)(C4)C5)c4cncc(-c5cnc6nc(C7CC7)sc6c5)c4)(CC2)CC3)no1 [Example 480, N-((4-(5-(tert-butyl)-1,2,4-oxadiazol-3-yl)bicyclo[2.2.2]octan-1-yl)methyl)-N-(5-(2-cyclopropylthiazolo[4,5-b]pyridin-6-yl)pyridin-3-yl)-3-fluorobicyclo[1.1.1]pentane-1-carboxamide] | 988 |
| CCOc1ncc(-c2cccc(N(CC34CCC(c5nc(C(F)F)no5)(CC3)CC4)C(=O)C34CC(F)(C3)C4)c2)cn1 [Example 470, N-((4-(3-(difluoromethyl)-1,2,4-oxadiazol-5-yl)bicyclo[2.2.2]octan-1-yl)methyl)-N-(3-(2-ethoxypyrimidin-5-yl)phenyl)-3-fluorobicyclo[1.1.1]pentane-1-carboxamide] | 164 |

Same assay, conditions: Gal4-hFXR fusion construct, HEK293 reporter cells; response relative to 8 μM GW-4064

| SMILES | EC50 [nM] |
| --- | --- |
| COc1nccc(-c2cccc(N(CC34CCC(c5nc(C6CC6)no5)(CC3)CC4)C(=O)C3CCC(F)(F)C3)c2)n1 (stereo not drawn) [Example 245, N-((4-(3-cyclopropyl-1,2,4-oxadiazol-5-yl)bicyclo[2.2.2]octan-1-yl)methyl)-3,3-difluoro-N-(3-(2-methoxypyrimidin-4-yl)phenyl)cyclopentane-1-carboxamide] | 538 |
| O=C(C1CC(O)(C(F)(F)F)C1)N(CC12CCC(C(=O)NS(=O)(=O)C3CC3)(CC1)CC2)c1cccc(-c2ccc(OC(F)F)cc2)c1 (stereo not drawn) [Example 638, N-(cyclopropylsulfonyl)-4-(((cis)-N-(4′-(difluoromethoxy)-[1,1′-biphenyl]-3-yl)-3-hydroxy-3-(trifluoromethyl)cyclobutane-1-carboxamido)methyl)bicyclo[2.2.2]octane-1-carboxamide] | 2000 |
| Cc1nc2ccc(-c3cncc(N(CC45CCC(c6nc(C7CC7)no6)(CC4)CC5)C(=O)C45CC(F)(C4)C5)c3)cc2s1 [Example 425, N-((4-(3-cyclopropyl-1,2,4-oxadiazol-5-yl)bicyclo[2.2.2]octan-1-yl)methyl)-3-fluoro-N-(5-(2-methylbenzo[d]thiazol-6-yl)pyridin-3-yl)bicyclo[1.1.1]pentane-1-carboxamide] | 198 |
| O=C1Cc2cc(-c3cccc(N(CC45CCC(c6nc(C7CC7)no6)(CC4)CC5)C(=O)C45CC(F)(C4)C5)c3)ccc2N1 [Example 332, N-((4-(3-cyclopropyl-1,2,4-oxadiazol-5-yl)bicyclo[2.2.2]octan-1-yl)methyl)-3-fluoro-N-(3-(2-oxoindolin-5-yl)phenyl)bicyclo[1.1.1]pentane-1-carboxamide] | 158 |
| CC(C)Oc1ccc(-c2cc(N(CC34CCC(c5nc(C6CC6)no5)(CC3)CC4)C(=O)OC(C)(C)C(F)(F)F)ncc2F)cc1 [Example 617, 1,1,1-trifluoro-2-methylpropan-2-yl ((4-(3-cyclopropyl-1,2,4-oxadiazol-5-yl)bicyclo[2.2.2]octan-1-yl)methyl)(5-fluoro-4-(4-isopropoxyphenyl)pyridin-2-yl)carbamate] | 81 |
| O=C(N(CC12CCC(c3nc(C4CC4)no3)(CC1)CC2)c1cccc(-c2cccn3ncnc23)c1)C12CC(F)(C1)C2 [Example 309, N-(3-([1,2,4]triazolo[1,5-a]pyridin-8-yl)phenyl)-N-((4-(3-cyclopropyl-1,2,4-oxadiazol-5-yl)bicyclo[2.2.2]octan-1-yl)methyl)-3-fluorobicyclo[1.1.1]pentane-1-carboxamide] | 221 |
| CC(=O)Nc1cccc(-c2cccc(N(CC34CCC(c5nc(C6CC6)no5)(CC3)CC4)C(=O)C34CC(F)(C3)C4)c2)c1 [Example 254, N-(3′-acetamido-[1,1′-biphenyl]-3-yl)-N-((4-(3-cyclopropyl-1,2,4-oxadiazol-5-yl)bicyclo[2.2.2]octan-1-yl)methyl)-3-fluorobicyclo[1.1.1]pentane-1-carboxamide] | 241 |
| O=C(N(CC12CCC(c3nc(C4CC4)no3)(CC1)CC2)c1cccc(-c2ccc(Cl)c(Cl)c2)c1)C12CC(F)(C1)C2 [Example 286, N-((4-(3-cyclopropyl-1,2,4-oxadiazol-5-yl)bicyclo[2.2.2]octan-1-yl)methyl)-N-(3′,4′-dichloro-[1,1′-biphenyl]-3-yl)-3-fluorobicyclo[1.1.1]pentane-1-carboxamide] | 361 |
| CCOc1ccc(-c2cncc(N(CC34CCC(c5nc(C6CC6)no5)(CC3)CC4)C(=O)C34CC(F)(C3)C4)c2)cn1 [Example 426, N-((4-(3-cyclopropyl-1,2,4-oxadiazol-5-yl)bicyclo[2.2.2]octan-1-yl)methyl)-N-(6′-ethoxy-[3,3′-bipyridin]-5-yl)-3-fluorobicyclo[1.1.1]pentane-1-carboxamide] | 417 |
| CC(C)OC(=O)NC12CCC(CN(C(=O)C3CC(O)(C(F)(F)F)C3)c3cccc(-c4ccc(C(C)(C)O)cc4)c3)(CC1)CC2 (stereo not drawn) [Example 602, Isopropyl (4-(((cis)-3-hydroxy-N-(4′-(2-hydroxypropan-2-yl)-[1,1′-biphenyl]-3-yl)-3-(trifluoromethyl)cyclobutane-1-carboxamido)methyl)bicyclo[2.2.2]octan-1-yl)carbamate] | 142 |
| Cc1nc2ccc(-c3cccc(N(CC45CCC(c6noc(C(C)(C)C)n6)(CC4)CC5)C(=O)C45CC(F)(C4)C5)c3)cc2s1 [Example 441, N-((4-(5-(tert-butyl)-1,2,4-oxadiazol-3-yl)bicyclo[2.2.2]octan-1-yl)methyl)-3-fluoro-N-(3-(2-methylbenzo[d]thiazol-6-yl)phenyl)bicyclo[1.1.1]pentane-1-carboxamide] | 68 |
| CCc1cnc(-c2cccc(N(CC34CCC(c5nc(C(C)C)no5)(CC3)CC4)C(=O)C34CC(F)(C3)C4)c2)nc1 [Example 394, N-(3-(5-ethylpyrimidin-2-yl)phenyl)-3-fluoro-N-((4-(3-isopropyl-1,2,4-oxadiazol-5-yl)bicyclo[2.2.2]octan-1-yl)methyl)bicyclo[1.1.1]pentane-1-carboxamide] | 77 |
| CC(F)(F)c1nc(C23CCC(CN(C(=O)C4CC(O)(C(F)(F)F)C4)c4cccc(-c5ccc(C(O)C(F)F)cc5)c4)(CC2)CC3)no1 (single isomer, unassigned) [Example 628 (second eluting isomer)] | 128 |
| CC(C)(F)c1nc(C23CCC(CN(c4cccc(-c5ccc(-c6nonc6N)cc5)c4)C(=O)[C@H]4C[C@](O)(C(F)(F)F)C4)(CC2)CC3)no1 [Example 662, (cis)-N-(4′-(4-amino-1,2,5-oxadiazol-3-yl)-[1,1′-biphenyl]-3-yl)-N-((4-(5-(2-fluoropropan-2-yl)-1,2,4-oxadiazol-3-yl)bicyclo[2.2.2]octan-1-yl)methyl)-3-hydroxy-3-(trifluoromethyl)cyclobutane-1-carboxamide] | 574 |
| COc1ncc(-c2cccc(N(CC34CCC(c5nc(C(C)(C)C)no5)(CC3)CC4)C(=O)C34CC(F)(C3)C4)c2)cn1 [Example 363, N-((4-(3-(tert-butyl)-1,2,4-oxadiazol-5-yl)bicyclo[2.2.2]octan-1-yl)methyl)-3-fluoro-N-(3-(2-methoxypyrimidin-5-yl)phenyl)bicyclo[1.1.1]pentane-1-carboxamide] | 70 |
| CCOc1ccc(-c2cccc(N(CC34CCC(c5nc(C(C)(C)C)no5)(CC3)CC4)C(=O)C34CC(F)(C3)C4)c2)cc1 [Example 359, N-((4-(3-(tert-butyl)-1,2,4-oxadiazol-5-yl)bicyclo[2.2.2]octan-1-yl)methyl)-N-(4′-ethoxy-[1,1′-biphenyl]-3-yl)-3-fluorobicyclo[1.1.1]pentane-1-carboxamide] | 151 |
| O=C(C1CC(F)(F)C1)N(CC12CCC(c3nc(C4CC4)no3)(CC1)CC2)c1cccc(-c2ccnc(OC3CC3)n2)c1 [Example 338, N-(3-(2-cyclopropoxypyrimidin-4-yl)phenyl)-N-((4-(3-cyclopropyl-1,2,4-oxadiazol-5-yl)bicyclo[2.2.2]octan-1-yl)methyl)-3,3-difluorocyclobutane-1-carboxamide] | 1360 |
| COCc1ccc(-c2cccc(N(CC34CCC(c5nc(C(C)C)no5)(CC3)CC4)C(=O)C34CC(F)(C3)C4)c2)cc1 [Example 392, 3-fluoro-N-((4-(3-isopropyl-1,2,4-oxadiazol-5-yl)bicyclo[2.2.2]octan-1-yl)methyl)-N-(4′-(methoxymethyl)-[1,1′-biphenyl]-3-yl)bicyclo[1.1.1]pentane-1-carboxamide] | 183 |
